Test results from US20020137676A1, “Selective treatment of endothelial somatostatin receptors” (priority 1998, published 2002).
Ends that are not written are not given here.

Columns and labels:
Type in all cases: cell-based, human
ECV304 or HUVEC cells = assay: Actin cytoskeleton effects of SSTR selective ligands on endothelial cells
Experimental: (§1) The cells were subsequently incubated at 37° C. for 30 min, fixed in 4% PFA for 5 min and washed in PBS. The actin cytoskeleton was visualized by incubating the cells with ALEXA-488 conjugated phalloidin (1:50, Molecular Probes Inc., Eugene, Oreg.) for 15 min at room temperature. Cells were screened using a Zeiss Axiophot microscope as previously described. Similar protocols were used to evaluate the effects SSTR1 selective ligands on endothelial cells.

ECV304 cells [1] = assay: ECV304/Matrigel in vitro angiogenesis model (capillary-like tube formation); settings: sub-micromolar and higher concentrations; ECV304 on Matrigel
From the text: In one aspect, the present invention utilises an established model system for assaying the effect of SSTR ligands on human angiogenesis. In one embodiment, the model system comprises the spontaneously transformed human umbilical vein endothelial cell line, ECV304, grown on a Matrigel substrate (Hughes, 1996, Experimental Cell Research 225:171-185). Matrigel is a solubilized basement membrane extract that promotes the differentiation of endothelial cells into capillary tube-like structures in vitro. It has been shown that cytoskeletal reorganization occurs when human umbilical vein endothelial cells undergo the morphological changes associated with neovascular tube formation on a Matrigel substrate (Grant et al., 1991, In Vitro Cell Dev. Biol. 27A(4):327-36.). […] This assay can also be used to identify […] ligands that stimulate the process of angiogenesis. […]
ECV304 cells (3.5×10^4 in 0.5 mL complete M199 medium) were placed onto 24-well plates that were pre-coated with 0.125 mL of Matrigel (Becton-Dickinson). […] After 24 hours, images of tube-formation were recorded on film. Images were converted into a digital format using a Hewlett-Packard ScanJet 4C/T scanner, the summed length of capillary-like tubes was quantified using Optimas 6.1 image analysis software (Optimas Corp.).

ECV304 cells [2] = assay: Actin cytoskeleton visualised with fluorescently labelled phalloidin; settings: 10 nM, 37° C. for 30 min
Experimental: as §1

[3] = system: Na/H exchanger on ECV304 cells; assay: Intracellular pH imaging of the Na/H exchanger

des-AA^1,2,5 [DTrp^8,IAamp^9]SS [SSTR1 '499 agonist]
actin stress fibres (ECV304 or HUVEC cells): decrease in stress fibres
lamellipodia formation (ECV304 or HUVEC cells): increase in lamellipodia formation

Somatostatin-14 (AGCKNFFWKTFTSC; ends and bridges not checked; cysteine pairing not given here; UniProt P61278 103-116, looked up) [SS14, native 14 amino acid form of somatostatin, an endogenous cyclic peptide; agonist of all somatostatin receptor subtypes]
inhibition of neovascular growth (ECV304 cells [1]): significantly inhibit neovascular growth
actin stress fibres (ECV304 cells [2]): loss of long stress fibers
lamellipodia at the plasma membrane (ECV304 cells [2]): increase in the number and size of lamellipodia
effect on Na/H exchanger [3]: inhibit
